Some results are limits rather than exact numbers.

What is called IC50 is the point on the concentration scale where inhibition reaches its midpoint. Low readings indicate higher potency, high ones lower potency.

For this test, the system named is MDA-MB-436 cells. Put plainly: Growth inhibition assay against BRCA mutant human breast cancer MDA-MB-436 cell line (CCK-8). The format is cell-based. The following applies: proliferation of MDA-MB-436 cells, 7 days.

`CNC(=O)c1ccc(N2CCN(Cc3ccc4c(c3)[nH]c(=O)c3ncsc34)CC2)c(C)n1` [Example 4, 7-((4-(2-methyl-6-(methylcarbamoyl)pyridin-3-yl)piperazin-1-yl)methyl)thiazolo[4,5-c]quinolin-4(5H)-one]: inhibition (Homo sapiens, MDA-MB-436, […]) was half-maximal at 7.69 nM (IC50).

As for `CNC(=O)c1ccc(N2CCN(Cc3ccc4c(c3)[nH]c(=O)c3cn[nH]c34)CC2)c(C)n1` [Example 7, 7-((4-(2-methyl-6-(methylcarbamoyl)pyridin-3-yl)piperazin-1-yl)methyl)-1,5-dihydro-4H-pyrazolo[4,3-c]quinolin-4-one], the midpoint of inhibition (Homo sapiens, MDA-MB-436, […]), the IC50, lay at 5.22 nM.

As to `CNC(=O)c1ccc(N2CCN(Cc3ccc4c(c3)[nH]c(=O)c3c4ccn3C)CC2)c(C)n1` [Example 11, 7-((4-(2-methyl-6-(methylcarbamoyl)pyridin-3-yl)piperazin-1-yl)methyl)-3-methyl-3,5-dihydro-4H-pyrrolo[2,3-c]quinolin-4-one], the half-maximal inhibitory concentration (IC50) (Homo sapiens, MDA-MB-436, […]) came out at 11.3 nM.

As for `CNC(=O)c1ccc(N2CCN(Cc3ccc4c(c3)[nH]c(=O)c3cc[nH]c34)CC2)c(C)n1` [Example 23, 7-((4-(2-methyl-6-(methylcarbamoyl)pyridin-3-yl)piperazin-1-yl)methyl)-1,5-dihydro-4H-pyrrolo[3,2-c]quinolin-4-one], the midpoint of inhibition (Homo sapiens, MDA-MB-436, […]), the IC50, lay at 1.74 nM.

With `CNC(=O)c1ccc(N2CCN(Cc3ccc4c(c3)[nH]c(=O)c3ccn(C)c34)CC2)c(F)n1` [Example 24, 7-((4-(2-fluoro-6-(methylcarbamoyl)pyridin-3-yl)piperazin-1-yl)methyl)-1-methyl-1,5-dihydro-4H-pyrrolo[3,2-c]quinolin-4-one], the half-inhibitory concentration (IC50) (Homo sapiens, MDA-MB-436, […]) amounted to 1.11 nM. Compared with the last molecule, the IC50 is about 1.6-fold lower.

For the setting “Homo sapiens, MDA-MB-436, […]”, `CNC(=O)c1ccc(N2CCN(Cc3ccc4c([nH]c(=O)n5ccnc45)c3F)CC2)c(C)n1` [Example 50, 8-((4-(2-methyl-6-(methylcarbamoyl)pyridin-3-yl)piperazin-1-yl)methyl)-7-fluoroimidazo[1,2-c]quinazolin-5(6H)-one] gave a 50% inhibitory concentration (IC50) of 23.6 nM.

`CNC(=O)c1ccc(N2CCN(Cc3ccc4c([nH]c(=O)c5c(Cl)cnn54)c3F)CC2)c(C)n1` [Example 59, 7-((4-(2-methyl-6-(methylcarbamoyl)pyridin-3-yl)piperazin-1-yl)methyl)-6-fluoro-3-chloro-pyrazolo[1,5-a]quinoxalin-4(5H)-one] registered an IC50 (Homo sapiens, MDA-MB-436, […]) of 2.13 nM. Compared with the last molecule, the IC50 is about 11-fold lower.

Where the note is “Homo sapiens, MDA-MB-436, […]”, `CNC(=O)c1ccc(N2CCN(Cc3ccc4c(c3)[nH]c(=O)c3n[nH]cc34)CC2)c(C)n1` [Example 70, 7-((4-(2-methyl-6-(methylcarbamoyl)pyridin-3-yl)piperazin-1-yl)methyl)-2,5-dihydro-4H-pyrazolo[3,4-c]quinolin-4-one] gave an IC50 of 28.9 nM.

For `CNC(=O)c1ccc(N2CCN(Cc3ccc4c([nH]c(=O)n5nccc45)c3F)CC2)c(F)n1` [Example 73, 8-((4-(2-fluoro-6-(methylcarbamoyl)pyridin-3-yl)piperazin-1-yl)methyl)-7-fluoropyrazolo[1,5-c]quinazolin-5(6H)-one], the IC50 (Homo sapiens, MDA-MB-436, […]) stood at 12.3 nM.

Consider `CNC(=O)c1ccc(N2CCN(Cc3ccc4c([nH]c(=O)c5cn(C)nc54)c3F)CC2)c(C)n1` [Example 88, 7-((4-(2-methyl-6-(methylcarbamoyl)pyridin-3-yl)piperazin-1-yl)methyl)-6-fluoro-2-methyl-2,5-dihydro-4H-pyrazolo[4,3-c]quinolin-4-one], for which, where the note is “Homo sapiens, MDA-MB-436, […]”, the half-maximal inhibitory concentration (IC50) is 21.7 nM.

For the molecule `CNC(=O)c1ccc(N2CCN(Cc3ccc4c([nH]c(=O)c5cn(C)nc54)c3F)CC2)c(F)n1` [Example 90, 7-((4-(2-fluoro-6-(methylcarbamoyl)pyridin-3-yl)piperazin-1-yl)methyl)-6-fluoro-2-methyl-2,5-dihydro-4H-pyrazolo[4,3-c]quinolin-4-one], half-maximal inhibition (Homo sapiens, MDA-MB-436, […]) (IC50) required 28.7 nM.

The molecule `CNC(=O)c1ccc(N2CCN(Cc3cc4[nH]c(=O)c5ocnc5c4cc3F)CC2)c(F)n1` [Example 94, 7-((4-(2-fluoro-6-(methylcarbamoyl)pyridin-3-yl)piperazin-1-yl)methyl)-8-fluorooxazolo[5,4-c]quinolin-4(5H)-one] came in with a 50% inhibitory concentration (IC50) (Homo sapiens, MDA-MB-436, […]) greater than 100 nM.

Regarding `CNC(=O)c1ccc(N2CCN(Cc3ccc4c([nH]c(=O)c5ocnc54)c3F)CC2)c(F)n1` [Example 95, 7-((4-(2-fluoro-6-(methylcarbamoyl)pyridin-3-yl)piperazin-1-yl)methyl)-6-fluorooxazolo[5,4-c]quinolin-4(5H)-one], the IC50 (Homo sapiens, MDA-MB-436, […]) was greater than 100 nM.

The molecule `CNC(=O)c1ccc(N2CCN(Cc3ccc4c([nH]c(=O)c5c(C)noc54)c3F)CC2)c(F)n1` [Example 96, 7-((4-(2-fluoro-6-(methylcarbamoyl)pyridin-3-yl)piperazin-1-yl)methyl)-3-methyl-6-fluoroisoxazolo[4,5-c]quinolin-4(5H)-one] displayed a concentration for half-maximal inhibition (IC50) (Homo sapiens, MDA-MB-436, […]) of 36.7 nM. In other words, the double-digit nanomolar range.

Turning to `CNC(=O)c1ccc(N2CCN(Cc3cc4[nH]c(=O)c5c(C)noc5c4cc3F)CC2)c(F)n1` [Example 97, 7-((4-(2-fluoro-6-(methylcarbamoyl)pyridin-3-yl)piperazin-1-yl)methyl)-3-methyl-8-fluoroisoxazolo[4,5-c]quinolin-4(5H)-one], the IC50 (Homo sapiens, MDA-MB-436, […]) came to 9.79 nM.

Take `CNC(=O)c1ccc(N2CCN(Cc3ccc4c([nH]c(=O)c5ncn(C)c54)c3F)CC2)c(F)n1` [Example 100, 7-((4-(2-fluoro-6-(methylcarbamoyl)pyridin-3-yl)piperazin-1-yl)methyl)-6-fluoro-1-methyl-1,5-dihydro-4H-imidazo[4,5-c]quinolin-4-one]: the concentration for half-maximal inhibition (IC50) (Homo sapiens, MDA-MB-436, […]) is greater than 100 nM.

`CNC(=O)c1ccc(N2CCN(Cc3ccc4c([nH]c(=O)c5occc54)c3F)CC2)c(C(F)F)n1` [Example 101, 7-((4-(2-(difluoromethyl)-6-(methylcarbamoyl)pyridin-3-yl)piperazin-1-yl)methyl)-6-fluorofuro[2,3-c]quinolin-4(5H)-one] gave an IC50 (Homo sapiens, MDA-MB-436, […]) of 23 nM. This counts as double-digit nanomolar.

Turning to `CNC(=O)c1ccc(N2CCN(Cc3ccc4c([nH]c(=O)c5occc54)c3Cl)CC2)c(F)n1` [Example 105, 7-((4-(2-fluoro-6-(methylcarbamoyl)pyridin-3-yl)piperazin-1-yl)methyl)-6-chlorofuro[2,3-c]quinolin-4(5H)-one], the concentration for half-maximal inhibition (IC50) (Homo sapiens, MDA-MB-436, […]) was greater than 100 nM.

As to `NC(=O)c1ccc(N2CCN(Cc3ccc4c([nH]c(=O)c5occc54)c3F)CC2)c(F)n1` [Example 106, 7-((4-(2-fluoro-6-carbamoylpyridin-3-yl)piperazin-1-yl)methyl)-6-fluorofuro[2,3-c]quinolin-4(5H)-one], under “Homo sapiens, MDA-MB-436, […]”, the 50% inhibitory concentration (IC50) was 17.5 nM.

Consider `O=c1[nH]c2c(F)c(CN3CCN(c4ccc(-c5nnc[nH]5)nc4F)CC3)ccc2c2ccoc12` [Example 110, 7-((4-(2-fluoro-6-(4H-1,2,4-triazol-3-yl)pyridin-3-yl)piperazin-1-yl)methyl)-6-fluorofuro[2,3-c]quinolin-4(5H)-one], for which the IC50 (Homo sapiens, MDA-MB-436, […]) is 12.9 nM.

Under “Homo sapiens, MDA-MB-436, […]”, `CNC(=O)c1ccc(N2CCN(Cc3ccc4c(c3)[nH]c(=O)c3occc34)CC2)cn1` [Example 113, 7-((4-(6-(methylcarbamoyl)pyridin-3-yl)piperazin-1-yl)methyl)furo[2,3-c]quinolin-4(5H)-one] yielded a half-inhibitory concentration (IC50) of 2.19 nM.

With `CNC(=O)c1ccc(N2CCN(Cc3ccc4c(c3)[nH]c(=O)c3ccoc34)CC2)c(F)n1` [Example 114, 7-((4-(2-fluoro-6-(methylcarbamoyl)pyridin-3-yl)piperazin-1-yl)methyl)furo[3,2-c]quinolin-4(5H)-one], half-maximal inhibition (Homo sapiens, MDA-MB-436, […]) (IC50) was put at 1.32 nM.

For `CNC(=O)c1ccc(N2CCN(Cc3ccc4c([nH]c(=O)c5oc(C)cc54)c3F)CC2)c(F)n1` [Example 116, 7-((4-(2-fluoro-6-(methylcarbamoyl)pyridin-3-yl)piperazin-1-yl)methyl)-6-fluoro-2-methylfuro[2,3-c]quinolin-4(5H)-one], 7.5 nM corresponded to half-maximal inhibition (Homo sapiens, MDA-MB-436, […]) (IC50).

Molecule `CNC(=O)c1ccc(N2CCN(Cc3ccc4c([nH]c(=O)n5nccc45)c3F)CC2)c(C)n1` [Example 119, 8-((4-(2-methyl-6-(methylcarbamoyl)pyridin-3-yl)piperazin-1-yl)methyl)-7-fluoropyrazolo[1,5-c]quinazolin-5(6H)-one] yielded an IC50 of 7.87 nM.

For the setting “Homo sapiens, MDA-MB-436, […]”, `CNC(=O)c1ccc(C2CCN(Cc3ccc4c([nH]c(=O)c5c(C)cnn54)c3F)CC2)c(F)n1` [Example 124, 6-fluoro-7-((4-(2-fluoro-6-(methylcarbamoyl)pyridin-3-yl)piperidin-1-yl)methyl)-3-methylpyrazolo[1,5-a]quinoxalin-4(5H)-one] came in with a half-inhibitory concentration (IC50) of 25.5 nM.

With `CCNC(=O)c1ccc(N2CCN(Cc3ccc4c([nH]c(=O)c5c(C)cnn54)c3F)CC2)c(F)n1` [Example 125, 7-((4-(2-fluoro-6-(ethylcarbamoyl)pyridin-3-yl)piperazin-1-yl)methyl)-6-fluoro-3-methylpyrazolo[1,5-a]quinoxalin-4(5H)-one], where the note is “Homo sapiens, MDA-MB-436, […]”, half-maximal inhibition (IC50) required 7.24 nM.

As for `CNC(=O)c1ncc(N2CCN(Cc3ccc4c([nH]c(=O)c5c(C)cnn54)c3F)CC2)cc1F` [Example 127, 7-((4-(5-fluoro-6-(methylcarbamoyl)pyridin-3-yl)piperazin-1-yl)methyl)-6-fluoro-3-methylpyrazolo[1,5-a]quinoxalin-4(5H)-one], the half-inhibitory concentration (IC50) (Homo sapiens, MDA-MB-436, […]) came to 55.3 nM.

For the setting “Homo sapiens, MDA-MB-436, […]”, `CNC(=O)c1ccc(N[C@@H]2CCN(Cc3ccc4c([nH]c(=O)c5c(C)cnn54)c3F)C2)cn1` [Example 134, (R)-6-fluoro-3-methyl-7-((3-((6-(methylcarbamoyl)pyridin-3-yl)amino)pyrrolidin-1-yl)methyl)pyrazolo[1,5-a]quinoxalin-4(5H)-one] had a half-maximal inhibitory concentration (IC50) greater than 100 nM.

In the case of `CNC(=O)c1ccc(N[C@@H]2CCN(Cc3ccc4c([nH]c(=O)c5c(C)cnn54)c3F)C2)c(F)n1` [Example 135, (R)-6-fluoro-7-((3-((2-fluoro-6-(methylcarbamoyl)pyridin-3-yl)amino)pyrrolidin-1-yl)methyl)-3-methylpyrazolo[1,5-a]quinoxalin-4(5H)-one], the IC50 (Homo sapiens, MDA-MB-436, […]) was greater than 100 nM.

Take `CNC(=O)c1ccc(N2CCN(Cc3ccc4c(c3)[nH]c(=O)c3nocc34)CC2)c(F)n1` [Example 144, 7-((4-(2-fluoro-6-(methylcarbamoyl)pyridin-3-yl)piperazin-1-yl)methyl)isoxazolo[3,4-c]quinolin-4(5H)-one]: the midpoint of inhibition (Homo sapiens, MDA-MB-436, […]), the IC50, lay at 1.9 nM.

`CNC(=O)c1ccc(N2CCN(Cc3ccc4c([nH]c(=O)c5cncn54)c3F)CC2)cn1` [Example 145, 7-((4-(6-(methylcarbamoyl)pyridin-3-yl)piperazin-1-yl)methyl)-6-fluoroimidazo[1,5-a]quinoxalin-4(5H)-one] showed an IC50 (Homo sapiens, MDA-MB-436, […]) greater than 100 nM.

For the origin of these results see patent publication US20250215013A1, “SUBSTITUTED TRICYCLIC COMPOUNDS AS PARP INHIBITORS AND THE USE THEREOF” (IMPACT THERAPEUTICS (SHANGHAI), INC., priority 2022, published 2025).
